Patent publication US11149050B2, “Highly soluble steviol glycosides” (PureCircle USA Inc., priority 2016, dated 2021)
Like-named read-outs stand apart in the source and are kept apart here.

Columns and labels:
[1] = cited from earlier work; for solubility (in words): water; for water solubility at room temperature: pure (>95% w/w) compound, room temperature (25° C.)
[2] = cited from earlier work
[3] = Solubility in RO water at room temperature (25° C.) within 5 minutes, soluble if <10 FAU turbidity; assay type: physicochemical; settings: crystalline material
Description: Hereinafter, unless specified otherwise, the solubility of material is determined in RO (reverse osmosis) water at room temperature (25° C.) within 5 minutes.
Hereinafter, where the solubility is expressed as “%”, it to be understood as number of grams of material soluble in 100 grams of solvent.
Hereinafter, the descriptive terms for solubility are provided according to definitions in Combined Compendium of Food Additive Specifications Vol. 4 (FAO JECFA Monographs 1, Rome 2006, page 41).
Procedure: Unless otherwise specified, transfer a known amount of the sample into a flask containing known amount of the specified solvent, shake for no less than 30 sec and no more than 5 min.”
The material is deemed soluble at certain concentration if the produced solution has <10 FAU (Formazin Attenuation Unit) turbidity value.

solubility, JECFA descriptive term [3]	Structure (SMILES)	Rate of dissolution in H2O at 25° C. (descriptive) [2]	Rate of dissolution in H2O at 25° C. ([2]; in 5 minutes)	water solubility at room temperature [1]	solubility (in words) [1]	further results
	C=C1C[C@@]23CC[C@H]4[C@@](C)(CCC[C@@]4(C)C(=O)O[C@@H]4O[C@H](CO)[C@@H](O)[C@H](O)[C@H]4O)[C@@H]2CC[C@]1(O[C@@H]1O[C@H](CO)[C@@H](O)[C@H](O[C@@H]2O[C@H](CO)[C@@H](O)[C@H](O)[C@H]2O)[C@H]1O[C@@H]1O[C@H](CO)[C@@H](O)[C@H](O)[C@H]1O)C3 [Form 1, Rebaudioside A]	Very low				solubility (in words) ([1]; listed as hydrate form of Rebaudioside A): lowest solubility; Rate of dissolution in H2O at 25° C. ([2]; in 60 minutes): (<0.2% in 60
	C=C1C[C@@]23CC[C@H]4[C@@](C)(CCC[C@@]4(C)C(=O)O[C@@H]4O[C@H](CO)[C@@H](O)[C@H](O)[C@H]4O)[C@@H]2CC[C@]1(O[C@@H]1O[C@H](CO)[C@@H](O)[C@H](O[C@@H]2O[C@H](CO)[C@@H](O)[C@H](O)[C@H]2O)[C@H]1O[C@@H]1O[C@H](CO)[C@@H](O)[C@H](O)[C@H]1O)C3 [Form 2, Rebaudioside A]	Intermediate	(<30% in 5			
	C=C1C[C@@]23CC[C@H]4[C@@](C)(CCC[C@@]4(C)C(=O)O[C@@H]4O[C@H](CO)[C@@H](O)[C@H](O)[C@H]4O)[C@@H]2CC[C@]1(O[C@@H]1O[C@H](CO)[C@@H](O)[C@H](O[C@@H]2O[C@H](CO)[C@@H](O)[C@H](O)[C@H]2O)[C@H]1O[C@@H]1O[C@H](CO)[C@@H](O)[C@H](O)[C@H]1O)C3 [Form 3, Rebaudioside A]	High	(>30% in			
	C=C1C[C@@]23CC[C@H]4[C@@](C)(CCC[C@@]4(C)C(=O)O[C@@H]4O[C@H](CO)[C@@H](O)[C@H](O)[C@H]4O)[C@@H]2CC[C@]1(O[C@@H]1O[C@H](CO)[C@@H](O)[C@H](O[C@@H]2O[C@H](CO)[C@@H](O)[C@H](O)[C@H]2O)[C@H]1O[C@@H]1O[C@H](CO)[C@@H](O)[C@H](O)[C@H]1O)C3 [Form 4, Rebaudioside A]	High	(>35% in			solubility (in words) ([1]; listed as rebaudioside A amorphous forms): high solubility
very slightly soluble	C=C1C[C@@]23CC[C@H]4[C@@](C)(CCC[C@@]4(C)C(=O)O[C@@H]4O[C@H](CO)[C@@H](O)[C@H](O)[C@H]4O[C@@H]4O[C@H](CO)[C@@H](O)[C@H](O)[C@H]4O)[C@@H]2CC[C@]1(O[C@@H]1O[C@H](CO)[C@@H](O)[C@H](O[C@@H]2O[C@H](CO)[C@@H](O)[C@H](O)[C@H]2O)[C@H]1O[C@@H]1O[C@H](CO)[C@@H](O)[C@H](O)[C@H]1O)C3 [Rebaudioside D]			less than 0.05%	very low water solubility	
very slightly soluble	C=C1C[C@@]23CC[C@H]4[C@@](C)(CCC[C@@]4(C)C(=O)O[C@@H]4O[C@H](CO)[C@@H](O)[C@H](O[C@@H]5O[C@H](CO)[C@@H](O)[C@H](O)[C@H]5O)[C@H]4O[C@@H]4O[C@H](CO)[C@@H](O)[C@H](O)[C@H]4O)[C@@H]2CC[C@]1(O[C@@H]1O[C@H](CO)[C@@H](O)[C@H](O[C@@H]2O[C@H](CO)[C@@H](O)[C@H](O)[C@H]2O)[C@H]1O[C@@H]1O[C@H](CO)[C@@H](O)[C@H](O)[C@H]1O)C3 [Rebaudioside M]			about 0.1%	very low water solubility	solubility (in words) ([1]; listed as rebaudioside M): poor aqueous solubility
